# Test results reported in ChEMBL document CHEMBL2396531, “Hybrid molecule from O2-(2,4-dinitrophenyl)diazeniumdiolate and oleanolic acid: a glutathione S-transferase π-activated nitric oxide prodrug with selective anti-human hepatocellular carcinoma activity and improved stability” (J Med Chem, 2013).
# Tests used:
# H22 [1] = experiment: Antitumor activity against mouse H22 cells […] in mouse assessed as inhibition of tumor growth at 153.8 umol/kg, ip after 14 days relative to vehicle-treated control; assay type: functional; conditions: 336 h
# Mus musculus [2] = experiment: Acute toxicity in mouse assessed as mortality at 383.1 umol/kg, ip after 14 days; assay type: organism-based; conditions: in vivo, 336 h
# HepG2 [3] = experiment: Cytotoxicity against human HepG2 cells after 72 hrs by MTT assay; assay type: functional, cell-based; conditions: HepG2, 72 h
# H22 [4] = experiment: Antitumor activity against mouse H22 cells […] in mouse assessed as inhibition of tumor growth at 38.3 umol/kg, ip after 14 days relative to vehicle-treated control; assay type: functional; conditions: 336 h
# Mus musculus [5] = experiment: Acute toxicity in mouse assessed as mortality at 196.1 umol/kg, ip after 14 days; assay type: organism-based; conditions: in vivo, 336 h
# [6] = Chemical stability in PBS buffer at pH 7.4 in presence of 5 mM GSH at 37 degC after 100 mins by HPLC analysis; assay type: physicochemical; conditions: PBS buffer with 5 mM GSH, read-out: Stability
# HepG2 [7] = experiment: Cytotoxicity against human HepG2 cells assessed as cell viability at 3 uM after 24 hrs by MTT assay; assay type: functional; conditions: HepG2, 24 h, read-out: Activity
# H22 [8] = experiment: Antitumor activity against mouse H22 cells […] in mouse assessed as inhibition of tumor growth at 19.2 umol/kg, ip after 14 days relative to vehicle-treated control; assay type: functional; conditions: 336 h
# HepG2 [9] = experiment: Induction of intracellular NO release in human HepG2 cells at 30 uM after 6 hrs by Griess assay relative to PABA/NO; assay type: functional
# SMMC-7721 [10] = experiment: Cytotoxicity against human SMMC7721 cells after 72 hrs by MTT assay; assay type: functional, cell-based; conditions: SMMC-7721, 72 h
# HepG2 [11] = experiment: Cytotoxicity against human HepG2 cells after 24 hrs by MTT assay; assay type: functional, cell-based; conditions: HepG2, 24 h
# [12] = Activity at GSTalpha (unknown origin) assessed per mg protein by Michaelis-Menten equation; assay type: ADME; conditions: human
# Bel-7402 [13] = experiment: Cytotoxicity against human Bel7402 cells after 72 hrs by MTT assay; assay type: functional, cell-based; conditions: Bel-7402, 72 h
# [14] = Chemical stability in PBS buffer at pH 7.4 in presence of 1 mM GSH at room temperature for 30 mins by spectrophotometry; assay type: physicochemical; conditions: pH 7.4, 0.5 h
# [15] = (§1) Activity at GSTalpha (unknown origin) by Michaelis-Menten equation; assay type: ADME; conditions: human
# GSTalpha = experiment: as §1; assay type: ADME; conditions: human, GSTalpha enzyme
# H22 [16] = experiment: Antitumor activity against mouse H22 cells […] in mouse assessed as inhibition of tumor growth at 9.6 umol/kg, ip after 14 days relative to vehicle-treated control; assay type: functional; conditions: 336 h
# Mus musculus [17] = experiment: Acute toxicity in mouse assessed as abnormality in eating at 196.1 umol/kg, ip after 14 days; assay type: organism-based; conditions: in vivo, 336 h
# HepG2 [18] = experiment: Cytotoxicity against human HepG2 cells after 48 hrs by MTT assay; assay type: functional, cell-based; conditions: HepG2, 48 h
# SMMC-7721 [19] = experiment: Cytotoxicity against human SMMC7721 cells at 30 uM after 24 hrs by MTT assay; assay type: functional
# Mus musculus [20] = experiment: Acute toxicity in mouse assessed as body weight at 196.1 umol/kg, ip after 14 days; assay type: organism-based; conditions: in vivo, 336 h
# HepG2 [21] = experiment: Cytotoxicity against human HepG2 cells at 30 uM after 24 hrs by MTT assay; assay type: functional
# [22] = Activity at GSTalpha (unknown origin) assessed as compound decomposition in presence of 1mM GSH at 40 uM by microplate reader analysis; assay type: ADME; conditions: human
# Mus musculus [23] = experiment: Acute toxicity in mouse assessed as abnormality in drinking at 196.1 umol/kg, ip after 14 days; assay type: organism-based; conditions: in vivo, 336 h
# [24] = Cytotoxicity against human LO2 cells at 1 to 4 uM after 24 hrs by MTT assay; assay type: cell-based; conditions: l02, 24 h
# HepG2 [25] = experiment: Cytotoxicity against human HepG2 cells assessed as cell viability at 3 uM after 24 hrs by MTT assay in presence of EA; assay type: functional; conditions: HepG2, 24 h, read-out: Activity
# Mus musculus [26] = experiment: Acute toxicity in mouse assessed as activity at 196.1 umol/kg, ip after 14 days; assay type: organism-based; conditions: in vivo, 336 h
# [27] = Acute toxicity in ip dosed mouse after 14 days; assay type: organism-based; conditions: in vivo
# Bel-7402 [28] = experiment: Cytotoxicity against human Bel7402 cells at 30 uM after 24 hrs by MTT assay; assay type: functional
# Plasma = experiment: Metabolic stability in Sprague-Dawley rat plasma at 40 uM after 6 hrs by HPLC analysis; assay type: ADME, cell-free
# HepG2 [29] = experiment: Induction of intracellular NO release in human HepG2 cells at 30 uM after 6 hrs by Griess assay relative to JS-K; assay type: functional
# [30] = target: Glutathione S-transferase P (Homo sapiens, UniProt P09211); experiment: Activity at GSTpi (unknown origin) assessed as compound decomposition in presence of 1mM GSH at 40 uM by microplate reader analysis; assay type: ADME
# [31] = Metabolic stability in Sprague-Dawley rat plasma at 40 uM after 9 hrs by HPLC analysis; assay type: ADME, cell-free; conditions: read-out: Stability
# [32] = Chemical stability in PBS buffer at pH 7.4 in presence of 4 mM GSH at 37 degC after 15 to 20 mins by HPLC analysis; assay type: physicochemical
# Sequence of Glutathione S-transferase P (P09211 whole entry): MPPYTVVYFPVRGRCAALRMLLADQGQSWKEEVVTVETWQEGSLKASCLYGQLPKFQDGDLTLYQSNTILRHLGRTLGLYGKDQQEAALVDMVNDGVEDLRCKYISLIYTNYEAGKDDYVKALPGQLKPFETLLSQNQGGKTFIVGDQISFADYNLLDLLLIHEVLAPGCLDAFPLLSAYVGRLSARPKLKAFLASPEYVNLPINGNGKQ
compound,measurement,setting,value
O=c1[nH]cc(F)c(=O)[nH]1 [FLUOROURACIL],inhibition in vivo at 153.8 µmol/kg,H22 [1],57.5%
CN(CCO)/[N+]([O-])=N\Oc1cc(N2CCN(CC(=O)O[C@H]3CC[C@]4(C)[C@H]5CC=C6[C@@H]7CC(C)(C)CC[C@]7(C(=O)O[C@@H]7O[C@H](CO)[C@H](O)[C@H](O)[C@H]7O)CC[C@@]6(C)[C@]5(C)CC[C@H]4C3(C)C)CC2)c([N+](=O)[O-])cc1[N+](=O)[O-],Activity,Mus musculus [2],Toxic
same,IC50,HepG2 [3],1.41 µM
same,inhibition in vivo at 38.3 µmol/kg,H22 [4],68.4%
same,Activity,Mus musculus [5],Non-toxic
same,remaining at 100 min,[6],78%
same,viability at 3 µM,HepG2 [7],17%
same,inhibition in vivo at 19.2 µmol/kg,H22 [8],36.1%
same,Ratio,HepG2 [9],2
same,IC50,SMMC-7721 [10],2.3 µM
same,IC50,HepG2 [11],3.38 µM
same,Vmax,[12],1.69 µmol/min
same,IC50,Bel-7402 [13],1.45 µM
same,Stability,[14],Stable
same,Kcat,[15],0.72 s⁻¹
same,Km,GSTalpha,264 µM
same,inhibition in vivo at 9.6 µmol/kg,H22 [16],13.4%
same,Activity,Mus musculus [17],Non-toxic
same,IC50,HepG2 [18],2.11 µM
same,Cytotoxicity,SMMC-7721 [19],80%
same,Activity,Mus musculus [20],Non-toxic
same,Cytotoxicity,HepG2 [21],80%
same,Activity,[22],Active
same,Activity,Mus musculus [23],Non-toxic
same,Activity,[24],Toxic
same,viability at 3 µM,HepG2 [25],41.7%
same,Activity,Mus musculus [26],Non-toxic
same,LD50 at 336 h,[27],250 µmol/kg
same,Cytotoxicity,Bel-7402 [28],80%
same,Stability,Plasma,Stable
same,Ratio,HepG2 [29],2
same,Activity,[30],Active
same,"remaining at 9 h, 40 µM",[31],80%
CN(CCO)/[N+]([O-])=N/Oc1cc(NCC(=O)O[C@H]2CC[C@]3(C)[C@H]4CC=C5[C@@H]6CC(C)(C)CC[C@]6(C(=O)O[C@@H]6O[C@H](CO)[C@H](O)[C@H](O)[C@H]6O)CC[C@@]5(C)[C@]4(C)CC[C@H]3C2(C)C)c([N+](=O)[O-])cc1[N+](=O)[O-],IC50,HepG2 [3],3.65 µM
same,IC50,SMMC-7721 [10],7.44 µM
same,IC50,HepG2 [11],9.59 µM
same,IC50,Bel-7402 [13],5.68 µM
same,IC50,HepG2 [18],6.65 µM
C[C@H](Nc1cc(O/N=[N+](\[O-])N(C)CCO)c([N+](=O)[O-])cc1[N+](=O)[O-])C(=O)O[C@H]1CC[C@]2(C)[C@H]3CC=C4[C@@H]5CC(C)(C)CC[C@]5(C(=O)O[C@@H]5O[C@H](CO)[C@H](O)[C@H](O)[C@H]5O)CC[C@@]4(C)[C@]3(C)CC[C@H]2C1(C)C,IC50,HepG2 [3],6.91 µM
same,IC50,SMMC-7721 [10],8.84 µM
same,IC50,HepG2 [11],9.12 µM
same,IC50,Bel-7402 [13],7.38 µM
same,IC50,HepG2 [18],7.89 µM
CCOC(=O)N1CCN(/[N+]([O-])=N/Oc2ccc([N+](=O)[O-])cc2[N+](=O)[O-])CC1,IC50,HepG2 [3],5.19 µM
same,IC50,SMMC-7721 [10],7.31 µM
same,IC50,HepG2 [11],12.2 µM
same,IC50,Bel-7402 [13],5.17 µM
same,Stability,[14],Stable
same,IC50,HepG2 [18],7.12 µM
same,Cytotoxicity,SMMC-7721 [19],67%
same,Cytotoxicity,HepG2 [21],67%
same,Cytotoxicity,Bel-7402 [28],67%
same,Stability,[32],Unstable
CN(CCO)/[N+]([O-])=N\Oc1cc(NCCC(=O)O[C@H]2CC[C@]3(C)[C@H]4CC=C5[C@@H]6CC(C)(C)CC[C@]6(C(=O)O[C@@H]6O[C@H](CO)[C@H](O)[C@H](O)[C@H]6O)CC[C@@]5(C)[C@]4(C)CC[C@H]3C2(C)C)c([N+](=O)[O-])cc1[N+](=O)[O-],IC50,HepG2 [3],2.05 µM
same,IC50,SMMC-7721 [10],3.97 µM
same,IC50,HepG2 [11],5.45 µM
same,IC50,Bel-7402 [13],2.36 µM
same,IC50,HepG2 [18],3.56 µM
same,Cytotoxicity,SMMC-7721 [19],>70%
same,Cytotoxicity,HepG2 [21],>70%
same,Cytotoxicity,Bel-7402 [28],>70%
